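These data come from cells grown in 96-well plates and exposed to compound for 48 hours at five concentrations. Abbreviation: GI50, concentration required for 50% inhibition of growth. At the TGI there is no net growth.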
What was measured:
Assay in all cases: NCI tumour cell line growth inhibition, 48 h
786-0 renal = tested on: 786-0 renal
A498 renal = tested on: A498 renal
CAKI-1 renal = tested on: CAKI-1 renal
HL-60(TB) leukemia = tested on: HL-60(TB) leukemia
NCI-H460 lung = tested on: NCI-H460 lung
OVCAR-4 ovarian = tested on: OVCAR-4 ovarian
OVCAR-8 ovarian = tested on: OVCAR-8 ovarian
SK-MEL-28 melanoma = tested on: SK-MEL-28 melanoma
DU-145 prostate = tested on: DU-145 prostate
MDA-MB-435 = tested on: MDA-MB-435

Compound | TGI (786-0 renal) | TGI (A498 renal) | TGI (CAKI-1 renal) | TGI (HL-60(TB) leukemia) | TGI (NCI-H460 lung) | TGI (OVCAR-4 ovarian) | TGI (OVCAR-8 ovarian) | TGI (SK-MEL-28 melanoma) | GI50 (786-0 renal) | GI50 (A498 renal) | GI50 (CAKI-1 renal) | GI50 (HL-60(TB) leukemia) | GI50 (NCI-H460 lung) | GI50 (OVCAR-4 ovarian) | GI50 (OVCAR-8 ovarian) | GI50 (SK-MEL-28 melanoma) | GI50 (DU-145 prostate) | TGI (DU-145 prostate) | GI50 (MDA-MB-435) | TGI (MDA-MB-435)
CC(=O)c1ccc(OCC(O)CO)cc1 (stereo unspecified) | 76.2 µM | > 100 µM | > 100 µM | > 100 µM | > 100 µM | > 100 µM | > 100 µM | > 100 µM | – | – | – | – | – | – | – | – | – | – | – | –
CCN1C(=O)N(CC)C2Nn3c(s/c(=C\c4ccccc4Br)c3=O)=NC21 (stereo unspecified) | > 100 µM | 4.08 µM | 38.2 µM | 3.19 µM | 10.5 µM | > 100 µM | 7.85 µM | 69.6 µM | 3.18 µM | 0.886 µM | 1.75 µM | 1.28 µM | 0.804 µM | 2.29 µM | 1.61 µM | 2.23 µM | – | – | – | –
CC(=O)Nc1cc(N(CCOS(C)(=O)=O)CCOS(C)(=O)=O)ccc1N=O | > 100 µM | – | > 100 µM | > 100 µM | > 100 µM | > 100 µM | > 100 µM | > 100 µM | – | – | – | – | – | – | – | – | – | – | – | –
Clc1ccc2c(c1)N(c1ncnc3ccc(-c4cnc5[nH]ccc5c4)cc13)CC2 | 14.5 µM | – | 25.7 µM | > 100 µM | 12.4 µM | 16.9 µM | 29.5 µM | 27.7 µM | 1.56 µM | – | 3 µM | 1.26 µM | 0.952 µM | 1.12 µM | 3.25 µM | 10.2 µM | 2.22 µM | 19.4 µM | 0.295 µM | 1.2 µM
Cc1ccc2ncnc(N(CC(C)C)CC(C)C)c2c1 | 40 µM | 28.2 µM | 26.6 µM | – | 49 µM | 52.6 µM | 31.9 µM | 42.6 µM | 18.5 µM | 13.5 µM | 12.8 µM | – | 14.5 µM | 19 µM | 12.1 µM | 19.9 µM | 15.5 µM | 32.4 µM | 18.5 µM | 34.7 µM
COC(=O)C(CC(C)C)NC(=O)NC12CC3CC(CC(F)(C3)C1)C2 (stereo unspecified) | > 100 µM | > 100 µM | – | > 100 µM | > 100 µM | – | > 100 µM | > 100 µM | – | – | – | – | – | – | – | – | – | – | – | –
CCOC(=O)CSC(=O)NCCCl | > 100 µM | > 100 µM | > 100 µM | > 100 µM | > 100 µM | > 100 µM | > 100 µM | > 100 µM | – | – | – | 22.3 µM | – | – | – | – | – | – | – | –
CCOC(=O)n1cc(C2=C(c3cn(C)c4ccccc34)COC2=O)c2ccccc21 | 15.8 µM | 0.644 µM | 18.5 µM | 0.511 µM | > 100 µM | > 100 µM | > 100 µM | > 100 µM | 0.268 µM | 0.0391 µM | 0.0492 µM | 0.124 µM | 0.371 µM | 0.0692 µM | 0.312 µM | 1.03 µM | 0.391 µM | > 58 µM | – | –
COC(=O)C(=O)C(C(=O)C(=O)Nc1nc2ccc(C)cc2s1)c1nc2ccc([N+](=O)[O-])cc2[nH]c1=O (stereo unspecified) | > 100 µM | > 100 µM | > 100 µM | > 100 µM | > 100 µM | – | > 100 µM | > 100 µM | – | – | – | – | – | – | – | – | – | – | – | > 100 µM
COC(=O)/C=C(\C(=O)OC)c1c2c3c(cc(OC)c(OC)c3c3ccccc13)CCN2C | > 100 µM | – | – | 56.3 µM | > 100 µM | – | > 100 µM | > 100 µM | – | – | – | – | – | – | – | – | – | – | – | –
O=[N+]([O-])c1ccccc1N/N=C\c1c[nH]c2ccccc12 | > 93.1 µM | – | > 100 µM | > 100 µM | > 100 µM | > 100 µM | 29.4 µM | > 100 µM | 18.8 µM | – | 3.93 µM | 5.56 µM | 10.3 µM | 17.8 µM | 12 µM | > 100 µM | 27.6 µM | > 100 µM | > 100 µM | > 100 µM
CN(C)c1ccc(N=C2C=CC(=[N+](C)C)C=C2)cc1 | > 100 µM | > 100 µM | 41.8 µM | – | 43.7 µM | 21.8 µM | > 100 µM | > 100 µM | 30 µM | 2.7 µM | 12.1 µM | – | 5.36 µM | 7.52 µM | 4.51 µM | 14.2 µM | 22.3 µM | > 100 µM | 6.34 µM | 29.2 µM
COC(=O)/C(=N\Nc1nc(=S)[nH]n1N)C(C#N)c1ccccc1 (stereo unspecified) | > 100 µM | > 100 µM | – | > 100 µM | > 100 µM | > 100 µM | > 100 µM | > 100 µM | – | – | – | – | – | – | – | – | – | – | – | –
CCCCCCCCCCCCCC(=O)OCC1OC(n2cc(F)c(=O)[nH]c2=O)C(NC(=O)OCc2ccccc2)C(OC(=O)CCCCCCCCCCCCC)C1O (stereo unspecified) | > 100 µM | > 100 µM | > 100 µM | > 100 µM | > 100 µM | > 100 µM | > 100 µM | > 100 µM | – | – | – | – | – | – | – | – | – | – | – | –
CC(/C(=N\Nc1ccccc1)c1ccc(O)cc1)C1C(=O)Oc2ccccc21 (stereo unspecified) | > 100 µM | > 100 µM | > 100 µM | > 100 µM | > 100 µM | > 100 µM | > 100 µM | – | – | – | – | – | – | – | – | – | – | – | – | –
COC(=O)C(C(=O)C(=O)Nc1nc(=S)[nH][nH]1)c1csc(-n2nc(-c3ccccc3)cc2-c2ccccc2)n1 (stereo unspecified) | > 100 µM | > 100 µM | > 100 µM | > 100 µM | > 100 µM | > 100 µM | > 100 µM | – | – | – | – | – | – | – | – | – | – | – | – | –
CCOC(=O)C1C2CCC(C2)C1(CCl)C(=O)OCC (stereo unspecified) | > 100 µM | > 100 µM | > 100 µM | > 100 µM | > 100 µM | > 100 µM | > 100 µM | > 100 µM | – | – | – | – | – | – | – | – | – | – | – | –
O=C1c2ccccc2C(=O)N1CCN(CCN1C(=O)c2ccccc2C1=O)Cn1cccn1 | > 100 µM | > 100 µM | > 100 µM | 74.5 µM | > 100 µM | > 100 µM | > 100 µM | > 100 µM | – | – | – | – | – | – | – | – | – | – | – | –
N#Cc1ccccc1NC(=O)C(=O)c1c(O)c2ccccc2oc1=O | > 100 µM | > 100 µM | > 100 µM | > 100 µM | > 100 µM | > 100 µM | > 100 µM | > 100 µM | – | – | – | – | – | – | – | – | – | – | – | > 100 µM
CC(=O)OC1CCCn2c1nc1c2C(=O)C(C)=C(N2CC2)C1=O (stereo unspecified) | 1.65 µM | 0.36 µM | 0.687 µM | 14.6 µM | 0.296 µM | 2.35 µM | 1.37 µM | 1.14 µM | – | – | – | – | – | – | – | – | – | – | – | –

Reference: PubChem BioAssay (NCI)
